According to patent US10869931B2, “Polyethylene glycol-modified angiogenesis inhibitor HM-1 and application thereof” (NANJING ANJI BIOLOGICAL TECHNOLOGY CO.,LTD, priority 2016, dated 2020):
“And” between values parts separate entries of the source, which are not always exact repeats. Identical values can stand only once. Marks after values point to notes of the source that are not given here. Where no end group is shown, it is not given here.

Assays:
[1] = test system: Pancreatic cancer tumor cells; assay: MTT proliferation inhibition, pancreatic cancer cells; type: cell-based, human; parameters: concentration or dose not given beside the values; conditions: 48 h
Procedure, shortened: (§1)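 Tumour cells plated at 2×10^4 cells/mL, attached overnight, then exposed to dilutions of mPEG-HM-1 for 48 h at 37 °C, 5% CO2. MTT added 4 h, formazan dissolved in DMSO, absorbance 570/630 nm; growth inhibition = 1 − treated/untreated, three independent repeats, mean±SD.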

[2] = test system: Colorectal cancer tumor cells; assay: MTT proliferation inhibition, colorectal cancer cells; type: cell-based, human; parameters: concentration or dose not given beside the values; conditions: 48 h
Procedure, shortened: as §1

[3] = test system: Ovarian cancer tumor cells; assay: MTT proliferation inhibition, ovarian cancer cells; type: cell-based, human; parameters: concentration or dose not given beside the values; conditions: 48 h
Procedure, shortened: as §1

[4] = test system: human retinal vascular endothelial cells (HRCEC); assay: MTT proliferation of human retinal vascular endothelial cells; type: cell-based; conditions: 48 h; for Inhibition rate: HRCEC proliferation; for A570 nm-A630 nm: HRCEC; for A570 nm-A630 nm / inhibition rate of HRCEC proliferation: MTT
Procedure, shortened: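 HRCEC seeded at 3.0×10^4 cells/mL, adhered overnight, then exposed to polypeptide dilutions for 48 h at 37° C, 5% CO2; medium-only blank control. MTT added for 4 h, formazan dissolved in DMSO. PI (%)=1−administration group/negative group; three independent repeats, mean±SD, t test.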

Liver cancer tumor cells = assay: MTT proliferation inhibition, liver cancer cells; type: cell-based, human; parameters: concentration or dose not given beside the values; conditions: 48 h
Procedure, shortened: as §1

[5] = test system: Breast cancer tumor cells; assay: MTT proliferation inhibition, breast cancer cells; type: cell-based, human; parameters: concentration or dose not given beside the values; conditions: 48 h
Procedure, shortened: as §1

[6] = test system: carrageenan-induced toe swelling in SD rats; assay: Carrageenan-induced acute toe swelling in rats; type: in vivo, rat; parameters: Swelling: unit not given here
Procedure: SD rats were divided into blank model group, dexamethasone-positive group (5 mg/kg) and mPEG-HM-1 test group. The drug was administered once a day, and the model group was given the same volume of normal saline for 3 days and fed normally. At the first hour after the last administration, 0.1 mL of 1% carrageenan was injected subcutaneously into the right hind paw of the rats to induce inflammation. The volume of the foot was measured at 1 h, 3 h, 5 h, and 7 h after inflammation. The degree of swelling of the foot was calculated according to the following formula: the degree of swelling of the foot (mL)=the volume of the foot after inflammation−the volume before inflammation. Record the number of milliliters of spilled liquid (method: use the ballpoint pen to circle as the measurement mark at the protruding point of the right joint, and then put the right hind foot of each mouse into the volume measuring device, so that the hind limb is exposed outside the cylinder, and the depth of the immersion was determined by coinciding the circle with the liquid surface. After the foot enters the liquid, the liquid level rises, and the volume of the overflow liquid is the volume of the right hind foot of the rat, and the normal volume of the right hind foot of each mouse is sequentially determined).

[7] = test system: xylene-induced ear swelling in Kunming mice; assay: Xylene-induced ear swelling in mice; type: in vivo, mouse; conditions: for Inhibition rate: ear swelling vs control
Procedure, shortened: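 Kunming mice were dosed once daily for 5 days (aspirin 200 mg/kg as positive control, saline as blank). One hour after the last dose, xylene was applied to the right ear, with the left ear as untreated reference. Ear punches were weighed 2 h later; swelling degree = right − left weight, rate = degree/left weight ×100%.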

[8] = test system: Kidney cancer tumor cells; assay: MTT proliferation inhibition, kidney cancer cells; type: cell-based, human; parameters: concentration or dose not given beside the values; conditions: 48 h
Procedure, shortened: as §1

[9] = test system: Gastric cancer tumor cells; assay: MTT proliferation inhibition, gastric cancer cells; type: cell-based, human; parameters: concentration or dose not given beside the values; conditions: 48 h
Procedure, shortened: as §1

[10] = 20 mg/kg once a day for 3 days, 1 h after carrageenan
[11] = 20 mg/kg once a day for 3 days, 3 h after carrageenan
[12] = 20 mg/kg once a day for 3 days, 5 h after carrageenan
[13] = 20 mg/kg once a day for 3 days, 7 h after carrageenan
[14] = 40 mg/kg once a day for 3 days, 1 h after carrageenan
[15] = 40 mg/kg once a day for 3 days, 3 h after carrageenan
[16] = 40 mg/kg once a day for 3 days, 5 h after carrageenan
[17] = 40 mg/kg once a day for 3 days, 7 h after carrageenan
[18] = 10 mg/kg once daily for 5 days, 2 h after xylene
[19] = 20 mg/kg once daily for 5 days, 2 h after xylene
[20] = 40 mg/kg once daily for 5 days, 2 h after xylene
[21] = 80 mg/kg once a day for 3 days, 1 h after carrageenan
[22] = 80 mg/kg once a day for 3 days, 3 h after carrageenan
[23] = 80 mg/kg once a day for 3 days, 5 h after carrageenan
[24] = 80 mg/kg once a day for 3 days, 7 h after carrageenan
[25] = 80 mg/kg once daily for 5 days, 2 h after xylene

| Substance | rate of growth inhibition [1] [%] | rate of growth inhibition [2] [%] | rate of growth inhibition [3] [%] | Inhibition rate ([4]; 40 μg/mL) | A570 nm-A630 nm ([4]; 40 μg/mL) | Inhibition rate ([4]; 60 μg/mL) | A570 nm-A630 nm ([4]; 60 μg/mL) | Inhibition rate ([4]; 80 μg/mL) | A570 nm-A630 nm ([4]; 80 μg/mL) | rate of growth inhibition (Liver cancer tumor cells) [%] | rate of growth inhibition [5] [%] | Swelling [6, 10] | Swelling [6, 11] | Swelling [6, 12] | Swelling [7, 19] | Inhibition rate ([7]; 20 mg/kg once daily for 5 days) [%] | Swelling [7, 20] | Inhibition rate ([7]; 40 mg/kg once daily for 5 days) [%] | rate of growth inhibition [8] [%] | rate of growth inhibition [9] [%] | other results |
| --- | --- | --- | --- | --- | --- | --- | --- | --- | --- | --- | --- | --- | --- | --- | --- | --- | --- | --- | --- | --- | --- |
| mPEG-ALD10k-Arg-Gly-Ala-Asp-Arg-Ala-Gly-Gly-Gly-Gly-Arg-Gly-Asp ({mPEG‑ALD 10 kDa}-RGADRAGGGGRGD) [mPEG-ALD10k-HM-1] | 79.21 ± 19.14 | 80.22 ± 20.03 | 85.73 ± 22.17 | 48.34%* | 0.6771 ± 0.07904 | 58.62%** | 0.5424 ± 0.07508 | 73.89%* | 0.3422 ± 0.07412 | 70.55 ± 20.09 | 70.19 ± 17.07 | 0.24 ± 0.12 | 0.36 ± 0.13 | 0.42 ± 0.15 | 4.67 ± 0.79* mg | 23.67 | 3.58 ± 0.33** mg | 41.58 | 75.23 ± 19.11 | 80.01 ± 18.26 | inhibition rate of HRCEC proliferation ([4]; 80 μg/mL): 73.89%; Swelling [6, 13]: 0.32 ± 0.10; Swelling [6, 14]: 0.21 ± 0.10; Swelling [6, 15]: 0.31 ± 0.20; Swelling [6, 16]: 0.36 ± 0.13; Swelling [6, 17]: 0.33 ± 0.12; inhibition of carrageenan-induced toe swelling (in words) ([6]; rats, 40 mg/kg, once a day for 3 days): most effective; Swelling [7, 18]: 5.36 ± 0.12 mg; Inhibition rate ([7]; 10 mg/kg once daily for 5 days): 12.36% |
| mPEG-ALD20k-Arg-Gly-Ala-Asp-Arg-Ala-Gly-Gly-Gly-Gly-Arg-Gly-Asp ({mPEG‑ALD 20 kDa}-RGADRAGGGGRGD) [mPEG-ALD20k-HM-1] | 70.65 ± 20.29 | 72.43 ± 19.32 | 80.68 ± 21.69 | – | – | 46.21%* | 0.7050 ± 0.07965 | 55.90%** | 0.5780 ± 0.06987 | 65.31 ± 18.18 | 65.17 ± 18.20 | – | – | – | 4.89 ± 0.20 mg | 20.10 | 4.52 ± 0.32* mg | 26.19 | 70.23 ± 20.58 | 75.23 ± 20.62 | inhibition rate of HRCEC proliferation ([4]; 100 μg/mL): 68.15% and 69.12%; Inhibition rate ([4]; 100 μg/mL): 68.15%*; A570 nm-A630 nm ([4]; 100 μg/mL): 0.4175 ± 0.07301; Swelling [6, 14]: 0.27 ± 0.13; Swelling [6, 15]: 0.34 ± 0.16; Swelling [6, 16]: 0.41 ± 0.14; Swelling [6, 17]: 0.35 ± 0.13; Swelling [6, 21]: 0.25 ± 0.09; Swelling [6, 22]: 0.32 ± 0.11; Swelling [6, 23]: 0.40 ± 0.15; Swelling [6, 24]: 0.32 ± 0.16; Swelling [7, 25]: 3.70 ± 0.20** mg; Inhibition rate ([7]; 80 mg/kg once daily for 5 days): 39.47%; inhibition rate of ear swelling ([7]; 80 mg/kg, once daily for 5 days, mice): 37.76% |
| mPEG-ALD40k-Arg-Gly-Ala-Asp-Arg-Ala-Gly-Gly-Gly-Gly-Arg-Gly-Asp ({mPEG‑ALD 40 kDa}-RGADRAGGGGRGD) [mPEG-ALD40k-HM-1] | 65.31 ± 19.81 | 70.92 ± 16.52 | 74.61 ± 20.09 | – | – | – | – | 43.11%* | 0.7457 ± 0.07094 | 60.78 ± 10.88 | 60.17 ± 19.24 | – | – | – | – | – | 5.41 ± 0.16 mg | 11.53 | 68.46 ± 20.98 | 70.66 ± 18.72 | Inhibition rate ([4]; 100 μg/mL): 54.23%**; A570 nm-A630 nm ([4]; 100 μg/mL): 0.5999 ± 0.07138; Inhibition rate ([4]; 120 μg/mL): 62.08%*; A570 nm-A630 nm ([4]; 120 μg/mL): 0.4970 ± 0.07653; Swelling [6, 21]: 0.26 ± 0.14; Swelling [6, 22]: 0.35 ± 0.13; Swelling [6, 23]: 0.43 ± 0.14; Swelling [6, 24]: 0.33 ± 0.17; Swelling ([6]; 160 mg/kg once a day for 3 days, 1 h after carrageenan): 0.24 ± 0.13; Swelling ([6]; 160 mg/kg once a day for 3 days, 3 h after carrageenan): 0.34 ± 0.14; Swelling ([6]; 160 mg/kg once a day for 3 days, 5 h after carrageenan): 0.44 ± 0.15; Swelling ([6]; 160 mg/kg once a day for 3 days, 7 h after carrageenan): 0.34 ± 0.15; Swelling [7, 25]: 4.77 ± 0.62* mg; Inhibition rate ([7]; 80 mg/kg once daily for 5 days): 22.02%; Swelling ([7]; 160 mg/kg once daily for 5 days, 2 h after xylene): 4.16 ± 0.25** mg; Inhibition rate ([7]; 160 mg/kg once daily for 5 days): 32.09% |
| mPEG-SC5k-Arg-Gly-Ala-Asp-Arg-Ala-Gly-Gly-Gly-Gly-Arg-Gly-Asp ({mPEG‑SC 5 kDa}-RGADRAGGGGRGD) [mPEG-SC5k-HM-1] | 51.37 ± 16.23 | 55.35 ± 12.82 | 60.81 ± 20.27 | 51.76%** | 0.6323 ± 0.08797 | 62.10%* | 0.4968 ± 0.08679 | – | – | 51.34 ± 11.25 | 48.13 ± 12.17 | 0.23 ± 0.10 | 0.33 ± 0.20 | 0.38 ± 0.13 | 4.17 ± 0.19** mg | 32.10 | – | – | 51.07 ± 12.45 | 52.12 ± 13.22 | Inhibition rate ([4]; 20 μg/mL): 42.22%*; A570 nm-A630 nm ([4]; 20 μg/mL): 0.7573 ± 0.09088; Swelling ([6]; 10 mg/kg once a day for 3 days, 1 h after carrageenan): 0.24 ± 0.12; Swelling ([6]; 10 mg/kg once a day for 3 days, 3 h after carrageenan): 0.37 ± 0.14; Swelling ([6]; 10 mg/kg once a day for 3 days, 5 h after carrageenan): 0.42 ± 0.16; Swelling ([6]; 10 mg/kg once a day for 3 days, 7 h after carrageenan): 0.32 ± 0.13; Swelling [6, 13]: 0.34 ± 0.15; Inhibition rate ([7]; 5 mg/kg once daily for 5 days): 9.57%; Swelling ([7]; 5 mg/kg once daily for 5 days, right minus left ear piece weight 2 h after xylene): 5.55 ± 0.21 mg; Swelling [7, 18]: 4.90 ± 0.35* mg; Inhibition rate ([7]; 10 mg/kg once daily for 5 days): 20.13% |
